Calls of active or inactive are those of the source. No cut-off for these calls is given here.
Key:
[1] = system: HCT-116; test: Induction of apoptosis in human HCT-116 cells assessed as necrotic cells at 0.6 uM incubated for 48 hrs by Annexin V-FITC/PI staining based flow cytometry (reference value: 1.15 %); assay type: functional
[2] = Toxicity in BALB/c mouse implanted with mouse CT26 cells assessed as abnormality in lung at 15 to 45 mg/kg, ip qd treated for 14 days by H and E staining based analysis; assay type: organism-based; settings: in vivo, 336 h, dose 15-45 mg/kg, time 14 day
[3] = system: HCT-116; test: Induction of ER stress in human HCT-116 cells assessed as increase in ATF4 level at 0.3 to 1.2 uM by Western blot analysis; assay type: functional, cell-based; settings: dose 0.3-1.2 µM
[4] = system: HCT-116; test: Induction of apoptosis in human HCT-116 cells harboring siNC assessed as viable cells at 1.2 uM by Annexin V-FITC/PI staining based flow cytometry (reference value: 96.9 %); assay type: functional; settings: read-out: Activity
[5] = system: CT26; test: Antitumor activity against mouse CT26 cells implanted in BALB/c mouse assessed as reduction in tumor volume administered intraperitoneally once daily for 14 days; assay type: functional; settings: dose 15-45 mg/kg, route ip, time 14.0 day
[6] = system: HCT-116; test: Induction of apoptosis in human HCT-116 cells assessed as viable cells at 0.6 uM incubated for 48 hrs by Annexin V-FITC/PI staining based flow cytometry (reference value: 96.2 %); assay type: functional; settings: read-out: Activity
[7] = system: HCT-116; test: Induction of apoptosis in human HCT-116 cells at 1.2 uM in presence of NAC by Annexin V-FITC/PI staining based flow cytometry; assay type: functional, cell-based
[8] = Acute toxicity in BALB/c mouse assessed as death rate at 350 mg/kg, ip measured for 14 days; assay type: organism-based; settings: both, in vivo, time 14 day, read-out: Activity
[9] = system: HCT-116; test: Inhibition of colony formation in human HCT-116 cells harboring siNC at 1.2 uM incubated for 48 hrs followed by fresh media replacement without compound on every 72 hrs for 14 days by crystal violet staining based analysis; assay type: functional, cell-based
[10] = Toxicity in BALB/c mouse implanted with mouse CT26 cells assessed as change in body weight at 15 to 45 mg/kg, ip qd treated for 14 days; assay type: organism-based; settings: in vivo, 336 h, dose 15-45 mg/kg, time 14 day
[11] = system: HCT-116; test: Induction of cell cycle arrest in human HCT-116 cells assessed as accumulation at G1 phase at 0.3 uM incubated for 48 hrs by PI staining based flow cytometry (reference value: 59.37 %); assay type: functional
[12] = system: HCT-116; test: Induction of apoptosis in human HCT-116 cells assessed as viable cells at 0.3 uM incubated for 48 hrs by Annexin V-FITC/PI staining based flow cytometry (reference value: 96.2 %); assay type: functional; settings: read-out: Activity
[13] = system: HCT-116; test: Induction of cell cycle arrest in human HCT-116 cells assessed as decrease in cyclin A2 level incubated for 48 hrs by Western blot analysis; assay type: functional, cell-based; settings: dose 0.3-1.2 µM
[14] = system: HCT-116; test: Induction of ER stress in human HCT-116 cells assessed as increase in CHOP level at 0.3 to 1.2 uM by Western blot analysis; assay type: functional, cell-based; settings: dose 0.3-1.2 µM
[15] = system: HCT-116; test: Inhibition of cell viability in human HCT-116 cells at 0.3 to 1.2 uM incubated for 48 hrs in presence of NAC; assay type: functional, cell-based; settings: dose 0.3-1.2 µM
[16] = system: HCT-116; test: Induction of mitochondrial dysfunction in human HCT-116 cells at 1.2 uM in presence of NAC by JC-1 dye based analysis; assay type: functional, cell-based
[17] = Toxicity in BALB/c mouse implanted with mouse CT26 cells assessed as abnormality in liver at 15 to 45 mg/kg, ip qd treated for 14 days by H and E staining based analysis; assay type: organism-based; settings: in vivo, 336 h, dose 15-45 mg/kg, time 14 day
[18] = system: HCT-116; test: Induction of intracellular ROS generation in human HCT-116 cells at 1.2 uM in presence of NAC by flow cytometry; assay type: functional, cell-based
[19] = system: HCT-116; test: Induction of apoptosis in human HCT-116 cells harboring siNC assessed as early apoptotic cells at 1.2 uM by Annexin V-FITC/PI staining based flow cytometry (reference value: 1.52 %); assay type: functional
[20] = system: HCT-116; test: Induction of intracellular ROS generation in human HCT-116 cells harboring siPPIA-3 at 1.2 uM by flow cytometry (reference value: 15.4 %); assay type: functional
[21] = Toxicity in BALB/c mouse implanted with mouse CT26 cells assessed as injury in kidney at 15 to 45 mg/kg, ip qd treated for 14 days by H and E staining based analysis; assay type: organism-based; settings: in vivo, 336 h, dose 15-45 mg/kg, time 14 day
[22] = system: HCT-116; test: Induction of cell cycle arrest in human HCT-116 cells assessed as accumulation at S phase at 1.2 uM incubated for 48 hrs by PI staining based flow cytometry (reference value: 34.55 %); assay type: functional
[23] = system: HCT-116; test: Anti-migration activity in human HCT-116 cells incubated for 24 hrs by wound healing assay; assay type: functional, cell-based; settings: dose 0.3-1.2 µM
[24] = system: HCT-116; test: Induction of mitochondrial dysfunction in human HCT-116 cells at 0.3 to 1.2 uM by JC-1 dye based analysis; assay type: functional, cell-based; settings: dose 0.3-1.2 µM
[25] = system: HeLa; test: Antiproliferative activity against human HeLa cells assessed as inhibition of cell viability incubated for 48 hrs by CCK8 assay; assay type: functional, cell-based
[26] = system: HCT-116; test: Anti-proliferative activity against human HCT-116 cells harboring siPPIA-3 assessed as decrease in p-ERK1/2 level at 1.2 uM by Western blot analysis; assay type: functional, cell-based
[27] = system: HCT-116; test: Induction of apoptosis in human HCT-116 cells assessed as viable cells at 1.2 uM incubated for 48 hrs by Annexin V-FITC/PI staining based flow cytometry (reference value: 96.2 %); assay type: functional; settings: read-out: Activity
[28] = system: HCT-116; test: Effect on HSPA1A expression in human HCT-116 cells upto 6 uM incubated for 30 mins followed by pronase addition measured after 30 mins by DARTS assay; assay type: functional, cell-based
[29] = system: HCT-116; test: Induction of cell cycle arrest in human HCT-116 cells assessed as accumulation at S phase at 0.6 uM incubated for 48 hrs by PI staining based flow cytometry (reference value: 34.55 %); assay type: functional
[30] = system: CT26; test: Antiproliferative activity against mouse CT26 cells assessed as inhibition of cell viability incubated for 48 hrs by CCK8 assay; assay type: functional, cell-based; settings: CT26, 48 h
[31] = Acute toxicity in BALB/c mouse assessed as lethal dose administered intraperitoneally measured for 14 days; settings: in vivo, route ip, time 14 day
[32] = system: HCT-116; test: Anti-proliferative activity against human HCT-116 cells harboring siPPIA-3 assessed as decrease in p-p38 level at 1.2 uM by Western blot analysis; assay type: functional, cell-based
[33] = system: HCT-116; test: Effect on SET expression in human HCT-116 cells upto 6 uM incubated for 30 mins followed by pronase addition measured after 30 mins by DARTS assay; assay type: functional, cell-based
[34] = system: HCT-116; test: Antiproliferative activity against human HCT-116 cells assessed as inhibition of cell viability incubated for 48 hrs by CCK8 assay; assay type: functional, cell-based; settings: HCT-116, 48 h
[35] = system: HCT-116; test: Induction of apoptosis in human HCT-116 cells assessed as decrease in p-JNK level by Western blot analysis; assay type: functional, cell-based; settings: dose 0.3-1.2 µM
[36] = system: HCT-116; test: Induction of apoptosis in human HCT-116 cells assessed as necrotic cells at 0.3 uM incubated for 48 hrs by Annexin V-FITC/PI staining based flow cytometry (reference value: 1.15 %); assay type: functional
[37] = system: HCT-116; test: Inhibition of cell viability in human HCT-116 cells at 0.3 to 1.2 uM incubated for 48 hrs; assay type: functional, cell-based; settings: dose 0.3-1.2 µM

## C=C(C(=O)OC)N1c2nc(Cl)nc(Cl)c2N2C(c3ccccc3F)OC(C(=O)OCC)(C(=O)OCC)C12 (racemic)
[1]
  Activity: 2.12%
[2]
  Activity: Non-toxic
[3]
  Activity: Active
[4]
  viability at 1.2 µM: 77.8%
[5]
  Activity: Dose-dependent-effect
[6]
  viability at 0.6 µM: 77.5%
[7]
  Activity: inactive
[8]
  mortality at 336 h: 20%
[9]
  inhibition: Active
[10]
  Activity: Non-toxic
[11]
  Activity: 65.85%
[12]
  viability at 0.3 µM: 82.9%
[13]
  Activity: Dose-dependent-effect
[14]
  Activity: Active
[15]
  inhibition: inactive
[16]
  Activity: inactive
[17]
  Activity: Non-toxic
[18]
  Activity: inactive
[19]
  Activity: 16.8%
[20]
  Activity: 16.8%
[21]
  Activity: Non-toxic
[22]
  Activity: 28.16%
[23]
  Activity: Dose-dependent-effect
[24]
  Activity: Active
[25]
  IC50: 690 nM
[26]
  Activity: inactive
[27]
  viability at 1.2 µM: 68%
[28]
  Activity: No effect
[29]
  Activity: 28.97%
[30]
  IC50: 860 nM
[31]
  LD50 at 336 h: 453 mg/kg
[32]
  Activity: inactive
[33]
  Activity: No effect
[34]
  IC50: 510 nM
[35]
  Activity: Dose-dependent-effect
[36]
  Activity: 1.8%
[37]
  inhibition: Active

Source: ChEMBL document CHEMBL6103618, “Discovery of Novel Oxazolo[4,3-f]purine Derivatives as Antitumor Agents through PPIA Interaction” (J Med Chem, 2025)
